Data reported in patent US7166611B2, “Pharmaceutical compositions having appetite suppressant activity” (priority 1997, dated 2007).

Columns and labels:
Format in all cases: in vivo, rat
[1] = tested on: male Wistar rats; experiment: Example 44 single oral dose study: liver histopathology; settings: for Liver (ORO stain): Hepatocyte fat - centrilobular(Total) / Liver (ORO stain): Hepatocyte fat - centrilobular, Minimal / Liver (ORO stain): No abnormalities detected / Liver: Hepatocyte necrosis - focal (Total) / Liver: Hepatocyte necrosis - focal, Minimal / Liver: No abnormalities detected (incidence) / Liver: Parenchymal inflammatory cell foci (Total) / Liver: Parenchymal inflammatory cell foci, Minimal / Liver: Portal leucocytes (Total) / Liver: Portal leucocytes, Minimal / Liver: Portal lymphoid infiltration (Total) / Liver: Portal lymphoid infiltration, Minimal: 5 examined
Excerpt: Following the measurements of Day 8, the animals were killed by carbon dioxide asphyxiation, and the livers excised and placed in 10% buffered formalin, prior to histology.
Paraffin wax sections of each liver were taken at 4–5 μm and stained with haematoxylin and eosin. Additional sections were cut on a cryostat at 12 μm and stained for fat with Oil Red O (ORO).
Histological examination was restricted to the liver.

[2] = Example 44 single oral dose study: bodyweight
Method: (§1) Sample 1 to 3 were each administered as a single oral dose to male Wistar rats. Two additional control groups received vehicle (distilled water or DMSO). Orally administered fenfluramine (7.5 mg/kg) was included as a reference standard.
(§2) Fifty-five male Wistar rats were used for the study.
(§3) Bodyweights, food consumption (food hopper weight) and water consumption (bottle weight) were recorded daily at the same time each day from the day of arrival until the termination of the study.
(§4) On Day 1, the rats received a single oral (gavage) dose according to the following table:
(§5) Groups 1–8 were dosed using a constant dose volume of 10 ml/kg and groups 9–12 were dosed using a dose volume of 1 ml/kg.
(§6) The post-dose food and water consumption measurements and bodyweights at each time-point for the P57-treated animals were compared with those for the relevant, similarly-treated vehicle control group using analysis of variance followed by Williams' test for comparisons with controls.
(§7) The data for the fenfluramine-treated animals was compared with that for the vehicle-treated control group using Student's t test.

[3] = tested on: rats; experiment: Bioassay of chromatographic fractions for appetite suppressant activity; settings: bioassay of fractions from silica gel chromatography
Excerpt: The extract may be prepared from plant material such as the stems and roots of said plants of the genus Trichocaulon or of the genus Hoodia. The genus Trichocaulon and the genus Hoodia include succulent plants growing in arid regions such as are found in Southern Africa. In one application of the invention, the active appetite suppressant extract is obtained from the species Trichocaulon piliferum. The species Trichocaulon officinale may also be used to provide an active appetite suppressant extract. In another application of the invention, the active appetite suppressant extract may be obtained from the species Hoodia currorii, Hoodia gordonii or Hoodia lugardii.
The partially purified active extract may be dissolved in methanol, and may be further fractionated by column chromatography, employing silica gel as an adsorption medium and a chloroform/30% methanol mixture as an eluent. A plurality of different fractions may be obtained, and each may be evaluated, by suitable bioassaying procedures, to determine the appetite suppressant activity thereof.
A fraction having appetite suppressant activity may preferably be further fractionated such as by column chromatography using silica gel as an adsorption medium and a 9:1 chloroform:methanol solvent, and the resultant sub-fractions bioassayed for their appetite suppressant activity. […]

[4] = tested on: male Wistar rats; experiment: Example 44 single oral dose study: water consumption
Method: as §1, §2, §3, §4, §5
(§8) Food and water consumption were also measured at […] after dosing on Day 1.
as §6, §7

[5] = tested on: male Wistar rats; experiment: Example 44 single oral dose study: food consumption
Method: as §1, §2, §3, §4, §5, §8, §6, §7

[6] = tested on: young female rats; experiment: Oral Dose Anorectic Test, three consecutive days
Method: Animals were allocated to treatment groups using randomisation tables. Each treatment group consisted of three animals, with 6 animals in the control group. The test sample was dosed to young female rats with body weight 100–150 g at acclimatisation, for three consecutive days. Animals were identified by means of metallic ear tags and KMnO4 skin markings for easy identification. Animals were housed individually in standard rodent polycarbonate cages, and water and powdered commercial rodent pellets were available ad libitum. Water and food intakes were measured and calculated for each day. In order to find the minimum effective dose of the test sample, five doses were tested. Treatment was by oral gavage, with the test sample suspended in potato starch.
The test substance was compound (1), a white granular powder prepared from an extract from plant material in accordance with the invention, and the measured quantity of the test sample was mixed with prepared potato starch and dosed. Mixing with potato starch took place immediately before dosing on each day. Before withdrawal of the dosing volume for each animal, the suspensions were mixed thoroughly using a Vortex.
A range of five doses was tested, with a control group 15 receiving only the carrier substance.

[7] = 2.5 mg/kg single oral dose on Day 1
[8] = 5.0 mg/kg single oral dose on Day 1
[9] = 2.5 and 5.0 mg/kg single oral dose

3-0-[-β-D-thevetopyranosyl-(1→4)-β-D-cymaropyranosyl-(1→4)-β-D-cymaropyranosyl]-12β-0-tigloyloxy-14-hydroxy-14β-pregn-5-en-20-one [Compound (1)]
Liver (ORO stain): Hepatocyte fat - centrilobular(Total) ([1]; Group 9, 2.5 mg/kg): 2
Liver (ORO stain): Hepatocyte fat - centrilobular, Minimal ([1]; Group 9, 2.5 mg/kg): 2
Liver (ORO stain): No abnormalities detected ([1]; Group 9, 2.5 mg/kg): 3
Liver: Hepatocyte necrosis - focal (Total) ([1]; Group 9, 2.5 mg/kg): 1
Liver: Hepatocyte necrosis - focal, Minimal ([1]; Group 9, 2.5 mg/kg): 1
Liver: No abnormalities detected (incidence) ([1]; Group 9, 2.5 mg/kg): 0
Liver: Parenchymal inflammatory cell foci (Total) ([1]; Group 9, 2.5 mg/kg): 0
Liver: Parenchymal inflammatory cell foci, Minimal ([1]; Group 9, 2.5 mg/kg): 0
Liver: Portal leucocytes (Total) ([1]; Group 9, 2.5 mg/kg): 1
Liver: Portal leucocytes, Minimal ([1]; Group 9, 2.5 mg/kg): 1
Liver: Portal lymphoid infiltration (Total) ([1]; Group 9, 2.5 mg/kg): 5
Liver: Portal lymphoid infiltration, Minimal ([1]; Group 9, 2.5 mg/kg): 5
Liver (ORO stain): Hepatocyte fat - centrilobular(Total) ([1]; Group 10, 5 mg/kg): 2
Liver (ORO stain): Hepatocyte fat - centrilobular, Minimal ([1]; Group 10, 5 mg/kg): 2
Liver (ORO stain): No abnormalities detected ([1]; Group 10, 5 mg/kg): 3
Liver: Hepatocyte necrosis - focal (Total) ([1]; Group 10, 5 mg/kg): 0
Liver: Hepatocyte necrosis - focal, Minimal ([1]; Group 10, 5 mg/kg): 0
Liver: No abnormalities detected (incidence) ([1]; Group 10, 5 mg/kg): 1
Liver: Parenchymal inflammatory cell foci (Total) ([1]; Group 10, 5 mg/kg): 0
Liver: Parenchymal inflammatory cell foci, Minimal ([1]; Group 10, 5 mg/kg): 0
Liver: Portal leucocytes (Total) ([1]; Group 10, 5 mg/kg): 0
Liver: Portal leucocytes, Minimal ([1]; Group 10, 5 mg/kg): 0
Liver: Portal lymphoid infiltration (Total) ([1]; Group 10, 5 mg/kg): 4
Liver: Portal lymphoid infiltration, Minimal ([1]; Group 10, 5 mg/kg): 4
histological examination of the liver ([1]; all doses tested, single oral dose, livers taken Day 8): No treatment-related changes were detected
Group mean bodyweight (g ± sd) on Day: 2 [2, 7]: 191.2 ± 11.15 g
Group mean bodyweight (g ± sd) on Day: 3 [2, 7]: 200.0 ± 11.25 g
Group mean bodyweight (g ± sd) on Day: 4 [2, 7]: 209.6 ± 12.28 g
Group mean bodyweight (g ± sd) on Day: 5 [2, 7]: 219.6 ± 12.95 g
Group mean bodyweight (g ± sd) on Day: 6 [2, 7]: 229.4 ± 13.69 g
Group mean bodyweight (g ± sd) on Day: 7 [2, 7]: 238.4 ± 14.50 g
Group mean bodyweight (g ± sd) on Day: 8 [2, 7]: 247.0 ± 14.35 g
Group mean bodyweight (g ± sd) on Day: 2 [2, 8]: 192.0 ± 9.93 g
Group mean bodyweight (g ± sd) on Day: 3 [2, 8]: 192.4 ± 9.84 g
Group mean bodyweight (g ± sd) on Day: 4 [2, 8]: 201.0 ± 11.27 g
Group mean bodyweight (g ± sd) on Day: 5 [2, 8]: 209.4 ± 12.70 g
Group mean bodyweight (g ± sd) on Day: 6 [2, 8]: 219.8 ± 11.86 g
Group mean bodyweight (g ± sd) on Day: 7 [2, 8]: 228.2 ± 12.28 g
Group mean bodyweight (g ± sd) on Day: 8 [2, 8]: 236.0 ± 13.95 g
effects on bodyweights [2, 9]: No statistically significant effects on bodyweights
appetite suppressant activity [3]: marked appetite suppressant activity
Group mean water consumption (g ± sd) between Days: 1–2 ([4]; 2.5 mg/kg single oral dose): 32.2 ± 4.01 g
Group mean water consumption (g ± sd) between Days: 2–3 ([4]; 2.5 mg/kg single oral dose): 36.1 ± 12.42 g
Group mean water consumption (g ± sd) between Days: 3–4 ([4]; 2.5 mg/kg single oral dose): 38.3 ± 11.71 g
Group mean water consumption (g ± sd) between Days: 4–5 ([4]; 2.5 mg/kg single oral dose): 41.5 ± 16.60 g
Group mean water consumption (g ± sd) between Days: 5–6 ([4]; 2.5 mg/kg single oral dose): 34.7 ± 7.57 g
Group mean water consumption (g ± sd) between Days: 6–7 ([4]; 2.5 mg/kg single oral dose): 33.0 ± 4.20 g
Group mean water consumption (g ± sd) between Days: 7–8 ([4]; 2.5 mg/kg single oral dose): 35.3 ± 8.70 g
Group mean water consumption (g ± sd) between Days: 1–2 ([4]; 5.0 mg/kg single oral dose): 33.9 ± 2.40 g
Group mean water consumption (g ± sd) between Days: 2–3 ([4]; 5.0 mg/kg single oral dose): 31.5 ± 8.12 g
Group mean water consumption (g ± sd) between Days: 3–4 ([4]; 5.0 mg/kg single oral dose): 35.1 ± 3.82 g
Group mean water consumption (g ± sd) between Days: 4–5 ([4]; 5.0 mg/kg single oral dose): 37.7 ± 5.99 g
Group mean water consumption (g ± sd) between Days: 5–6 ([4]; 5.0 mg/kg single oral dose): 39.5 ± 7.78 g
Group mean water consumption (g ± sd) between Days: 6–7 ([4]; 5.0 mg/kg single oral dose): 37.4 ± 11.07 g
Group mean water consumption (g ± sd) between Days: 7–8 ([4]; 5.0 mg/kg single oral dose): 37.8 ± 6.42 g
effects on water consumption [4, 9]: No statistically significant effects on water consumption
Group mean food consumption (g ± sd) between Days: 1–2 ([5]; 2.5 mg/kg single oral dose): 26.8 ± 3.33 g
Group mean food consumption (g ± sd) between Days: 2–3 ([5]; 2.5 mg/kg single oral dose): 29.1 ± 3.43 g
Group mean food consumption (g ± sd) between Days: 3–4 ([5]; 2.5 mg/kg single oral dose): 31.7 ± 3.08 g
Group mean food consumption (g ± sd) between Days: 4–5 ([5]; 2.5 mg/kg single oral dose): 34.0 ± 2.95 g
Group mean food consumption (g ± sd) between Days: 5–6 ([5]; 2.5 mg/kg single oral dose): 34.4 ± 4.32 g
Group mean food consumption (g ± sd) between Days: 6–7 ([5]; 2.5 mg/kg single oral dose): 33.1 ± 4.11 g
Group mean food consumption (g ± sd) between Days: 7–8 ([5]; 2.5 mg/kg single oral dose): 34.8 ± 3.71 g
Group mean food consumption (g ± sd) between Days: 1–2 ([5]; 5.0 mg/kg single oral dose): 22.1 ± 2.19 g
Group mean food consumption (g ± sd) between Days: 2–3 ([5]; 5.0 mg/kg single oral dose): 21.0 ± 3.07 g
Group mean food consumption (g ± sd) between Days: 3–4 ([5]; 5.0 mg/kg single oral dose): 27.6 ± 5.26 g
Group mean food consumption (g ± sd) between Days: 4–5 ([5]; 5.0 mg/kg single oral dose): 30.5 ± 3.33 g
Group mean food consumption (g ± sd) between Days: 5–6 ([5]; 5.0 mg/kg single oral dose): 33.0 ± 3.16 g
Group mean food consumption (g ± sd) between Days: 6–7 ([5]; 5.0 mg/kg single oral dose): 32.4 ± 3.25 g
Group mean food consumption (g ± sd) between Days: 7–8 ([5]; 5.0 mg/kg single oral dose): 33.0 ± 3.84 g
duration of reduction in food consumption ([5]; 5.0 mg/kg single oral dose): 48 hours post-dose
food consumption versus vehicle-treated animals ([5]; 5.0 mg/kg single oral dose): statistically significant reductions in food consumption

C/C=C(\C)C(=O)O[C@@H]1CC2C(CC=C3C[C@@H](OC4CC(OC)C(OC5CC(OC)C(OC6OC(C)C(O)C(OC)C6O)C(C)O5)C(C)O4)CC[C@@]32C)[C@@]2(O)CC[C@H](C(C)=O)[C@@]12C (stereo partly drawn) [Compound (1), 3-0-[-β-D-thevetopyranosyl-(1→4)-β-D-cymaropyranosyl-(1→4)-β-D-cymaropyranosyl]-12β-0-tigloyloxy-14-hydroxy-14β-pregn-5-en-20-one]
appetite suppressant activity [3]: found to have appetite suppressing activity
body mass ([6]; 12.50 mg/kg group, oral): Actual loss in body mass
health of the animals ([6]; 6.25–50.00 mg/kg oral gavage, three consecutive days): Treatment did not affect the health of the animals
liver at post-mortem examination ([6]; all dose groups 6.25–50.00 mg/kg oral): friable livers
mean body mass gain over the total study period ([6]; all dose groups 6.25–50.00 mg/kg oral, three consecutive days): significantly reduced mean body mass gain
Respiratory rate ([6]; any dose group 6.25–50.00 mg/kg oral): in none of the animals in any dose group was significantly effected
water consumption ([6]; higher dose groups, oral, three consecutive days): increased water consumption
food intake and body mass gain ([6]; lowest dose group 6.25 mg/kg oral): Reduced food intake and reduced body mass gain
appetite suppressive action ([6]; lowest dose tested 6,25 mg/kg oral): has appetite suppressive action
